Results as given in a melting point compilation (Tetko et al.; mined from patent text by program, amines drawn as free bases though some values may be those of a salt).

| melting point [°C] | Structure (SMILES) |
| --- | --- |
| 200 to 201 | O=C(NCc1cccc(F)c1)NNC(=O)c1ccc2c(c1)CCO2 |
| 213 to 214 | Cc1cc(-c2nc3cccnn3c2-c2ccnc(NC(=O)NCC(C)C)c2)ccc1F |
| 228 to 230 | N#Cc1ccc2[nH]c(O)c(-c3ccc(CN4CCOCC4)cn3)c2c1 |
| 104 | COc1cc(NC(C)=O)c2c(c1)OC(C)C2 (centres undefined) |
| 45 to 46 | CCOC(=O)c1c(C)nc(Cl)c([N+](=O)[O-])c1Cl |
| 52 to 53 | Cc1ccc(O)c2c1C(C)CC2=O (centres undefined) |
| 96 to 98 | C=CCSc1ccc(-c2ccccc2)nn1 |
| 177 to 179 | CCOC(=O)c1ccc(C2CC(=O)N(C)C2C(O)c2ccc(-c3ccccc3)s2)cc1 (centres undefined) |
| 172 | O=C(NNc1ccc(Br)cc1)c1c(F)cccc1F |
| 156 to 157 | CC(=O)NCCOC(=O)C1CCn2c1cc(C)c2C(=O)c1ccc(Cl)n1C (centres undefined) |
| 248 to 249 | O=C(O)Cc1ccc(-c2cn3ccsc3n2)cc1 |
| 106 | CCCC(=O)c1cccc(NC(=O)C=C(C)Cl)c1 |
| 63 to 64 | CCOC(=O)C(NC(C)=O)C(=O)c1ccccc1 (centres undefined) |
| 356 to 358 | C(=Cc1ccc(-c2cc3cc(-c4ccccc4)ccc3o2)cc1)c1ccc(-c2ccccc2)cc1 |
| 87 to 90 | CN(Cc1ccc2c(Br)c(OC(Cc3ccccc3)C(=O)O)ccc2c1)C(=O)c1oc2ccccc2c1CCc1ccccc1 (centres undefined) |
| 156 to 159 | CCOC(=O)N1CCc2c(sc3nc(-c4ccc(Cl)cc4)cn23)C1 |
| 207 | COC(=O)c1cn(-c2ncnc3c2ccn3C)c2ncccc12 |
| 118 to 119 | Oc1cccc(-c2n[nH]c3ncnc(Nc4cccc(Cl)c4)c23)c1 |

| melting point [°C] | Structure (SMILES) |
| --- | --- |
| 143 to 144 | COc1cc(C2=NC(C)(C)C(c3ccncc3)C2)cc(OC)c1OC (centres undefined) |
| 158 to 159 | CC(C)C1(Cl)Cc2cc(OCC(=O)O)c(Cl)c(Cl)c2C1=O (centres undefined) |
| 212 to 213 | C[C@@H](n1cnc2cc(F)c(F)cc2c1=O)[C@](O)(Cn1cncn1)c1ccc(F)cc1F |
| 111 | CC(=O)c1ccccc1NC(=O)CN1CCN(CCCC=C(c2ccc(F)cc2)c2ccc(F)cc2)C(C(N)=O)C1 (centres undefined) |
| 273 | COc1c2c(c(OC(C)=O)c3c1C(=O)c1c(cc(OC(C)=O)c(C)c1OC(C)=O)C3=O)-c1c(cc3cnn(-c4ccccc4)c(=O)c3c1OC(C)=O)CC2 |
| 152 to 154 | CC(=O)CCc1ccc(C(N)=O)cc1 |
| 179 to 181 | Cc1cc(C)c(COC2CC(n3cc(F)c(=O)[nH]c3=O)OC2CO)c(C)c1 (centres undefined) |
| 51 to 52 | CCNCCNC(=O)c1ccnc(F)c1 |
| 235 to 238 | CNCC1CCN(c2c(F)cc3c(=O)c(C(=O)O)cn4c3c2OCC4C)C1 (centres undefined) |
| 92 to 93 | CCCCCCCCCCCCC(=O)c1c[nH]c(C(=O)OC)c1 |
| 67 to 68 | COc1ccc(C(C)=NOCc2ccc([N+](=O)[O-])cc2)cc1F |
| 180 to 185 | CS(=O)(=O)c1ccc2nc(NC(=N)N)nc(-c3ccccc3)c2c1 |
| 177 to 180 | O=C1CCC(c2ccccc2)(c2ccccc2)CN1 |
| 245 to 247 | Cc1nc2c(cc1C(=O)NC(=N)N)CCCCC2CS(=O)(=O)O (centres undefined) |
| 197 to 198 | COCCOc1cc2ncnc(NC3=CC(=O)C(N(C)c4ccc(OC)cc4)=CC3=O)c2cc1OC |
| 265 to 266 | O=C(O)c1cccc(-c2nc(-c3ccc(Cl)cc3)cs2)c1 |
| 231 to 233 | CC1(C)NC(=O)c2ccc(O)cc21 |
| 96 to 98 | O=[N+]([O-])c1ccc(O)c(CNCCC(F)=C(F)F)c1 |

| Structure (SMILES) | melting point [°C] |
| --- | --- |
| CNC1(c2ccccc2)CCC(c2[nH]c3ccccc3c2CCc2ccncc2)CC1 (centres undefined) | 224 to 227 |
| CCOC(=O)c1ncn2c1C(C)N=C(c1ccccc1)c1cc(C#C[Si](C)(C)C)ccc1-2 (centres undefined) | 160 to 162 |
| O=C(O)CC(=O)OCC(Cl)(Cl)Cl | 42 to 43 |
